The values that follow come from patent US20140044779A1, “Liquid Carrier for Oral Delivery of a Pharmacologically Active Agent” (LIPIDOR AB, priority 2011, published 2014).

The nature of this series: Storage stability of dispersions of solid powderous agents in vehicles. It is filed as physicochemical. Conditions: as little as. From the text: Depending on the chemical and physical nature of the solid and its particle size, a minimum amount of the solid is required to form the stable suspension of the invention. For a given substance of given physical and chemical nature as well of particle size, this minimum amount can be easily determined by experimentation, which is within the reach of a person skilled in the art. With some substances, such as hydrocortisone, stable suspensions are obtained by incorporating as little as 3% by weight of the substance into the fluid carrier. A preferred average particle size (with 50% or more of the particles being below average) is one of less than 550 μm or 250 μm, in particular of less than 100 μm or 20 μm, most preferred of less than 5 μm or 2 μm. The stabilizing effect of the particulate solid of the invention can also be obtained by a mixture of particulate substances, such as a particulate pharmacologically or cosmetically active agent, for instance hydrocortisone, and a particulate pharmaceutically or cosmetically acceptable excipient, such as microcrystalline cellulose. The powderous agents used are practically insoluble in the vehicles.

In the case of `C[C@]12CCC(=O)C=C1CC[C@@H]1[C@@H]2[C@@H](O)C[C@@]2(C)[C@H]1CC[C@]2(O)C(=O)CO` [hydrocortisone, Hydrocortisone], the “amount of substance incorporated into the fluid carrier at which stable suspensions are obtained” value is on record as 3 % by weight.
